# Measured values: patent publication US11357865B2, “Compositions containing nucleic acid nanoparticles with modular functionality” (Sixfold Bioscience Ltd., priority 2020, dated 2022)
# Test system: HeLa cells
# Assay: Aptamer uptake, confocal fluorescence microscopy of live HeLa cells
# Type: cell-based
# Conditions: 200 nM Cy5-labelled aptamer, increasing lengths of time, Lysotracker and early endosome GFP stains
# Procedure: Cells were imaged by confocal microscopy after treatment with 200 nM Cy5-labelled E07 min A-1.0 aptamer (A-1.0) or 200 nM Cy5-labelled constructs (SQ1-1000-001). For aptamer uptake experiments, 1×10^4 cells were plated in each well of a μ-Slide 8 well ibiditreat chamber (IBIDI), in 300 μL DMEM containing 10% v/v FBS. For uptake experiments, 3.4×10^3 cells (HeLa, MDA-MB-231 and A549 cells) or 6.8×10^3 cells (Mcf-7) were plated in each well of a μ-Slide 18 well ibiditreat chamber (IBIDI), in 100 μL DMEM containing 10% v/v FBS. 5 hours after cells had adhered and 48 hours before imaging, media was replaced with 50 particles per cell (PPC) CellLight early endosome-GFP (Thermo Fisher Scientific) for overnight incubation at 37° C. Additionally, 200 μL DMEM aliquots containing 200 nM aptamer were added to cells at corresponding incubation time points. Subsequently, media was removed and replaced with 60 nM LysoTracker Red DND-99 (Thermo Fisher Scientific) in 100-200 μL DMEM for 1 hour at 37° C. Cells were then washed once with Hank's Balanced Salt Solution (HBSS) (Gibco). Finally, 100-200 μL imaging media (HBSS buffered with 20 mM 4-(2-hydroxyethyl)-1-piperazineethanesulfonic acid (HEPES), adjusted to pH 7.4) was added to cells. Confocal images were captured with an EVOS microscope or a Zeiss LSM510 laser scanning microscope using 60× oil objective lens. […]
substance,measurement,value
"A-1.0: E07min aptamer, EGFR-targeting, 5′ Cy5, 2′F U, C, SEQ ID 75 (GGACGGAUUUAAUCGCCGUAGAAAAGCAUGUCAAAGCCGGAACCGUCC; 5′ Cy5; 2′F U and C; 2′ fluorine)",intracellular localisation after internalisation,accumulate in lysosomes after internalisation
